Results as given in article PMC7369900 (International Journal of Molecular Sciences, 2020).
≈ marks a conversion by molar mass, not a printed value.

What was measured:
HEK 293 [1] = test: cells; type: cell-based, human; settings: HEK 293, 72 h, MTT
Procedure: (§1) Among the conjugates, LVXC-S-S-CTP10-NH2 (5) was the least cytotoxic. […] In the case of HEK 293 and LLC-PK1 cells, the IC50 values of 5 were nearly four times higher. […] Additionally, we noted that the cancer cells Hep G2 were less sensitive to the action of the given compounds than the non-cancer cells (HEK 293 and LLC-PK1).
(§2) Cytotoxicity was assessed against three mammalian cell lines: LLC-PK1, Hep G2, and HEK 293. Multiwell (96–well) plates were seeded at 7000 cells/well in Medium 199 supplemented with 7.5% FBS, MEM Eagle’s medium supplemented with 10% FBS, or DMEM medium supplemented with 10% FBS, respectively. All media were supplemented with L-glutamine and antibiotics (penicillin/streptomycin). Cells were allowed to attach overnight. Drugs were dissolved in cell culture medium and added to wells in 100-µL aliquots of 2× concentrated solutions, in triplicates. To control wells, 100 µL of the medium were added. Cells were incubated with the studied compounds for 72 h at 37 °C and 95%/5% or 90%/10% (HEK 293 cells) CO2 atmosphere. Then, 20-µL aliquots of MTT solution in PBS (4 mg/mL) were added to all wells and plates were incubated further for 3 h in 37 °C. Formazan crystals formed were dissolved in 100 µL of DMSO and the absorbance of the solutions was measured using a multiwell plate reader (Spark, Tecan, Männedorf, Switzerland) at λ = 540 nm. Cytotoxicity was determined compared to the drug-free control. All experiments were performed in triplicates.

Hep G2 = test: cells; type: cell-based, human; settings: Hep G2, 72 h, MTT
Procedure: as §1, §2

LLC-PK1 = test: cells; type: cell-based, pig; settings: LLC-PK1, 72 h, MTT
Procedure: as §1, §2

S. aureus ATCC 29213 = test: microbe, parasite or virus in culture; type: cell-based, Staphylococcus aureus; settings: S. aureus ATCC 29213, MHB
Procedure: (§3) The antibacterial activity of TP10-NH2-based conjugates, as well as its constituents, was evaluated by microdilution assay in Mueller Hinton broth, MHB (Table 1). […] There are, however, some exceptions. […] Its activity against two other tested bacteria was somewhat lower though.
(§4) The antibacterial activity (bacteriostatic: MIC and bactericidal: MBC) of the tested compounds was determined in MHB (Mueller Hinton Broth, Sigma Aldrich, St. Louis, MO, USA) using a serial two-fold dilution method in 96-well microtiter plates according to CLSI recommendations, described in M07-A10 document. The exact conditions have been described previously. All experiments were performed in three replicates. The MIC90 and MIC50 values were defined as the concentrations of compounds tested that caused a 90% or 50% reduction of growth, respectively, comparing to the drug-free control.

[2] = system: C. albicans Δopt1Δopt5Δptr2Δptr22
P. aeruginosa ATCC 27853 = test: microbe, parasite or virus in culture; type: cell-based, Pseudomonas aeruginosa; settings: P. aeruginosa ATCC 27853, MHB
Procedure: as §3, §4

[3] = system: S. epidermidis ATCC 12228; test: microbe, parasite or virus in culture; type: cell-based, Staphylococcus epidermidis; settings: S. epidermidis ATCC 12228, MHB
Procedure: as §3, §4

bacteria = test: Influence of salts: antibacterial activity in MHB2 compared to MHB; type: cell-based; settings: MHB2: Ca(II) 20–25 mg/L, Mg(II) 10–12.5 mg/L
Procedure: Additionally, for selected compounds, the aspect of the influence of salts present in the medium on antimicrobial activity was evaluated. […] In the salt-enriched medium, the MIC values determined for TP10-NH2 were up to 40-fold higher than those found in MHB. The phenomenon of reduction of the growth inhibitory activity of antimicrobial peptides at a high salt concentration was previously evidenced by other researchers. It may cause severe limitations for AMPs’ usage as therapeutic agents because of the risk of potential inactivation by salts present in the human body.

E. coli ATCC 25922 = test: microbe, parasite or virus in culture; type: cell-based, Escherichia coli; settings: E. coli ATCC 25922, MHB
Procedure: as §3, §4

HL-60 and HEK 293 cells = test: ROS generation, statements not split by cell line; type: cell-based, human; settings: cell line not specified
Procedure: (§5) In the positive controls treated with H2O2, the fraction of ROS-positive cells exceeded 75%. […] Strikingly, in HL-60, a biologically significant effect was observed almost immediately (after 15 min of incubation). The same was noted after 1 h in the HEK 293 cell line. […] Similarly, conjugates 4 and 5 generated ROS at the low level (less than 15% for HL-60 and less than 20% for HEK 293) (manuscript in preparation). […] For HL-60, the critical level of ROS was noted after 15 min of incubation.
(§6) ROS generation activity was evaluated as described previously. Briefly, HEK 293 cells were seeded on 35-mm Petri dishes in the amount of 15,000 cells per plate for 24 h in DMEM medium. […] Positive controls contained 250 µM H2O2, while negative controls were without any additions. After 0.5, 2.5, 5.5, and 24 h of incubation at 37 °C, the CM-H2DCFDA molecular probe (Thermo Fischer Scientific, Waltham, USA) was added to the plates and incubation was continued for another 0.5 h. The HEK 293 cells were detached with 0.05% trypsin solution in PBS and HBSS (Hank’s Balanced Salt Solution) and suspended in fresh DMEM medium. All samples were additionally stained with 7-AAD (7-aminoactinomycin D, 0.8 µg/mL) and immediately analysed with a Guava easyCyte flow cytometer (Merc, Burlington, USA). The determinations were performed in triplicates.

[4] = system: Gram-positive and Gram-negative bacteria; type: cell-based; settings: MHB, four bacteria
Procedure: as §3, §4

human red blood cells = test: Hemolysis assay; settings: 1 h, 37 °C
HEK 293 [5] = test: ROS generation (CM-H2DCFDA, flow cytometry); type: cell-based, human; settings: positive cells in 24 h, class
Procedure: as §5, §6

HL-60 = test: ROS generation (CM-H2DCFDA, flow cytometry); type: cell-based, human; settings: positive cells in 24 h, class
Procedure: as §5, §6

| Structure (SMILES) | MIC50 (C. krusei DSM 6128) [µM] | IC50 (HEK 293 [1]) [µM] | IC50 (Hep G2) [µM] | IC50 (LLC-PK1) [µM] | MIC50 (C. albicans SC 5314) [µM] | MIC90 (C. albicans SC 5314) [µM] | MIC50 (C. glabrata DSM 11226) [µM] | MIC50 (S. aureus ATCC 29213) [µM] | MIC90 (S. aureus ATCC 29213) [µM] | MIC50 [2] [µM] | MIC90 [2] [µM] | MIC50 [3] [µM] | MIC90 [3] [µM] | MIC50 (E. coli ATCC 25922) [µM] | MIC90 (E. coli ATCC 25922) [µM] | MIC50 (C. albicans Gu4) [µM] | also measured |
| --- | --- | --- | --- | --- | --- | --- | --- | --- | --- | --- | --- | --- | --- | --- | --- | --- | --- |
| CC[C@H](C)[C@H](NC(=O)[C@H](CCCCN)NC(=O)[C@H](CCCCN)NC(=O)[C@H](C)NC(=O)[C@H](CC(C)C)NC(=O)[C@H](C)NC(=O)[C@H](C)NC(=O)[C@H](CC(C)C)NC(=O)[C@H](C)NC(=O)[C@H](CCCCN)NC(=O)[C@H](CC(C)C)NC(=O)[C@H](CC(N)=O)NC(=O)[C@@H](NC(=O)[C@H](CCCCN)NC(=O)CNC(=O)[C@H](CC(C)C)NC(=O)[C@H](CC(C)C)NC(=O)[C@H](Cc1ccc(O)cc1)NC(=O)CNC(=O)[C@H](C)NC(=O)CN1CCN(c2cc3c(cc2F)c(=O)c(C(=O)O)cn3C2CC2)CC1)[C@@H](C)CC)C(=O)N[C@@H](CC(C)C)C(N)=O [Compound 1, CIP-CH2CO-TP10-NH2] | 50 (≈ 128 µg/mL) | 10.8 ± 1.87 | 21.7 ± 2.18 | 17.8 ± 1.93 | 50 (≈ 128 µg/mL) | 100 (≈ 255 µg/mL) | >200 | 12.5 (≈ 31.9 µg/mL) | 12.5 (≈ 31.9 µg/mL) | 100 (≈ 255 µg/mL) | 200 (≈ 511 µg/mL) | 6.25 (≈ 16 µg/mL) | 12.5 (≈ 31.9 µg/mL) | 25 (≈ 63.8 µg/mL) | 25 (≈ 63.8 µg/mL) | 50 (≈ 128 µg/mL) | MIC50 (P. aeruginosa ATCC 27853): >100 µM; MIC90 (P. aeruginosa ATCC 27853): >100 µM; Influence of salts (MHB2 vs MHB) on antibacterial activity (bacteria): slight decrease of antibacterial activity |
| CC[C@H](C)[C@H](NC(=O)[C@H](CCCCN)NC(=O)[C@H](CCCCN)NC(=O)[C@H](C)NC(=O)[C@H](CC(C)C)NC(=O)[C@H](C)NC(=O)[C@H](C)NC(=O)[C@H](CC(C)C)NC(=O)[C@H](C)NC(=O)[C@H](CCCCN)NC(=O)[C@H](CC(C)C)NC(=O)[C@H](CC(N)=O)NC(=O)[C@@H](NC(=O)[C@H](CCCCN)NC(=O)CNC(=O)[C@H](CC(C)C)NC(=O)[C@H](CC(C)C)NC(=O)[C@H](Cc1ccc(O)cc1)NC(=O)CNC(=O)[C@H](C)NC(=O)c1cn(C2CC2)c2cc(N3CCNCC3)c(F)cc2c1=O)[C@@H](C)CC)C(=O)N[C@@H](CC(C)C)C(N)=O [Compound 2, CIP-TP10-NH2] | 50 (≈ 125 µg/mL) | 10.4 ± 1.39 | 11.5 ± 2.03 | 27.1 ± 1.82 | 12.5 (≈ 31.2 µg/mL) | 12.5 (≈ 31.2 µg/mL) | >200 | 0.8 (≈ 2 µg/mL) | 0.8 (≈ 2 µg/mL) | 6.25 (≈ 15.6 µg/mL) | 12.5 (≈ 31.2 µg/mL) | 1.6 (≈ 3.99 µg/mL) | 1.6 (≈ 3.99 µg/mL) | 1.6 (≈ 3.99 µg/mL) | 1.6 (≈ 3.99 µg/mL) | 25 (≈ 62.4 µg/mL) | ROS generation (HL-60 and HEK 293 cells): no ROS generation was observed; MIC values, range over tested bacteria [4]: 0.8 to 3.125 µM; MHC50 (concentration causing 50% hemolysis) (human red blood cells): 25 µg/mL; MHC50 (concentration causing 50% hemolysis) (human red blood cells; converted from μg/mL): ~ 10 μM; ROS HEK 293 (HEK 293 [5]): ++ (++ <10% positive cells in 24 h); ROS HL-60 (HL-60): ++ (++ <10% positive cells in 24 h) |
